Patent US10828301B2, “2,4-pyrimidinediamine compounds and their uses” (Rigel Pharmaceuticals, Inc, priority 2002, dated 2020)

Tests used:
[1] = tested on: cultured human mast cells (CHMC); test: CHMC low cell density ionomycin activation: tryptase assay; assay type: cell-based; conditions: Low Density CHMC, ionomycin activation, tryptase readout, read-out: CHMC Ionomycin Tryptase
[2] = tested on: cultured human mast cells (CHMC); test: CHMC low cell density IgE activation: tryptase and LTC4 assays; assay type: cell-based; conditions: Low Density CHMC, anti-IgE activation
How it was run: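 Cultured human mast cells at low density (1000-1500 per well) rested 1 h at 37° C, then stimulated with anti-IgE for 30 min at 37° C. Supernatant tryptase measured with fluorogenic substrate (30 min, room temperature); LTC4 quantified by ELISA on diluted supernatant.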

[3] = Homo sapiens, Mast cell, tryptase readout, read-out: CHMC anti-IgE Tryptase
[4] = tryptase readout, read-out: CHMC anti-IgE Tryptase

Structure (SMILES)	IC50 ([1]; Homo sapiens, Mast cell) [µM]	IC50 [2, 3] [µM]	IC50 [1] [µM]	IC50 [2, 4] [µM]	IC50 ([2]; LTC4 readout, read-out: CHMC anti-IgE LTC4) [µM]
Oc1ccc(Nc2ncc(F)c(Nc3ccc(O)cc3F)n2)c(F)c1 [Compound R926683, N2,N4-Bis(2-fluoro-4-hydroxyphenyl)-5-fluoro-2,4-pyrimidinediamine]	> 10	10	–	–	–
Cc1cnc(Nc2ccc3c(c2)OCCO3)nc1Nc1ccc2c(c1)OCCO2 [Compound R926242, N2,N4-Bis(3,4-ethylenedioxyphenyl)-5-methyl-2,4-pyrimidinediamine]	> 10	4.2	–	–	–
CC(C)(C)OC(=O)C=Nc1cccc(Nc2ncc(F)c(Nc3cccc(N)c3)n2)c1 [Compound R950178, N4-(3-Aminophenyl)-N2-(3-tert-butoxycarbonylmethyleneaminophenyl)-5-fluoro-2,4-pyrimidinediamine]	> 10	0.688	–	–	–
CC(Nc1nc(Nc2cccc(O)c2)ncc1Br)c1ccc(F)cc1 (racemic) [Compound R935023, (±)-5-Bromo-N4-[1-(4-fluorophenyl)ethyl]-N2-(3-hydroxyphenyl)-2,4-pyrimidinediamine]	> 10	> 10	–	–	–
CNCCNC(=O)C=Nc1cccc(Nc2ncc(F)c(Nc3cccc(O)c3)n2)c1 [Compound R950225, 5-Fluoro-N4-(3-hydroxyphenyl)-N2-[3-[(N-methylamino)ethylamino]carbonylmethyleneaminophenyl]-2,4-pyrimidinediamine]	> 10	5.28	–	–	–
Fc1cc(Nc2ncc(F)c(Nc3ccc4c(c3)OCCO4)n2)cc(C(F)(F)F)c1 [Compound R926894, N4-(3,4-Ethylenedioxyphenyl)-5-fluoro-N2-(3-fluoro-5-trifluoromethylphenyl)-2,4-pyrimidinediamine]	> 10	> 10	–	–	–
COC(=O)C(CC(C)C)Nc1ncc(C#N)c(NC(CC(C)C)C(=O)OC)n1 (centres unmarked) [Compound R925815, N2,N4-Bis(1-methoxycarbonyl-3-methylbutyl)-5-cyano-2,4-pyrimidinediamine]	> 10	> 10	–	–	–
O=C(O)c1cccc(Nc2ncc(F)c(Nc3cccc(C(=O)O)c3)n2)c1 [Compound R945036, N2,N4-Bis(3-carboxyphenyl)-5-fluoro-2,4-pyrimidinediamine]	> 10	> 10	–	–	–
Oc1cccc(Nc2nc(N=Cc3ccoc3)ncc2F)c1 [Compound R950210, N2-(3-Furylmethylene)-5-fluoro-N4-(3-hydroxyphenyl)-2,4-pyrimidinediamine]	> 10	10	–	–	–
OBc1cccc(Nc2nc(Nc3ccc4c(c3)OCCO4)ncc2F)c1 [Compound R926756, N2-(3,4-Ethylenedioxyphenyl)-5-fluoro-N4-(3-hydroxyborylphenyl)-2,4-pyrimidinediamine]	> 10	1.36	–	–	–
Oc1cccc(Nc2nc(NCc3ccccn3)ncc2F)c1 [Compound R945166, 5-Fluoro-N4-(3-hydroxyphenyl)-N2-(2-pyridylmethyl)-2,4-pyrimidinediamine]	> 10	> 10	–	–	–
O=C(O)C1CCC(Nc2nc(Nc3ccc4c(c3)OCCO4)ncc2F)CC1 (centres unmarked) [Compound R925795, N4-(4-Carboxycyclohexyl)-N2-(3,4-ethylenedioxyphenyl)-5-fluoro-2,4-pyrimidinediamine]	> 10	> 10	–	–	–
Oc1cccc(Nc2cc(-c3ccccc3)nc(Nc3cccc(O)c3)n2)c1 [Compound R925812, N2,N4-Bis(3-hydroxyphenyl)-6-phenyl-2,4-pyrimidinediamine]	> 10	5.8	–	–	–
N#Cc1cnc(Nc2cccc(O)c2)nc1Nc1cccc(O)c1 [Compound R925774, N2,N4-Bis(3-hydroxyphenyl)-5-cyano-2,4-pyrimidinediamine]	> 10	0.435	–	–	–
CCOC(=O)c1cc2cc(Nc3ncc(F)c(Nc4ccc(C(C)(C)C)cc4)n3)ccc2[nH]1 [Compound R926474, N4-(4-tert-Butylphenyl)-N2-(2-ethoxycarbonylindol-5-yl)-5-fluoro-2,4-pyrimidinediamine]	> 10	2.5	–	–	–
COc1ccc(Nc2ncc(Br)c(Nc3ccc(OC)c(-c4ccccc4)c3)n2)cc1-c1ccccc1 [Compound R925802, N2,N4-Bis(4-methoxy-3-phenylphenyl)-5-bromo-2,4-pyrimidinediamine]	> 10	> 10	–	–	–
CNC(=O)Cn1ncc2ccc(Nc3nc(Nc4ccc(OC(C)C)cc4)ncc3F)cc21 [Compound R935224, 5-Fluoro-N2-(4-isopropoxyphenyl)-N4-[1-(N-methylaminocarbonyl)methyl-indazoline-6-yl]-2,4-pyrimidinediamine]	–	–	> 10	4.58	–
O=C1CCNC2=COc3ccc(Nc4nc(Nc5cccc(O)c5)ncc4F)cc3N12 [Compound R945237, 5-Fluoro-N2-(3-hydroxyphenyl)-N4-[1-oxo-1,2,3,6-tetrahydropyrimido[2,1-c][1,4]benzoxazin-9-yl]-2,4-pyrimidinediamine]	> 10	0.461	–	–	–

Structure (SMILES)	IC50 ([1]; Homo sapiens, Mast cell) [µM]	IC50 [2, 3] [µM]	IC50 [1] [µM]	IC50 [2, 4] [µM]	IC50 ([2]; LTC4 readout, read-out: CHMC anti-IgE LTC4) [µM]
CCOC(=O)c1cnc(Nc2ccc(CC#N)cc2)nc1Nc1ccc(CC#N)cc1 [Compound R926319, N2,N4-Bis(4-cyanomethylphenyl)-5-ethoxycarbonyl-2,4-pyrimidinediamine]	> 10	> 10	–	–	–
c1cc2c(cc1Nc1cc(Nc3ccc4c(c3)OCCO4)nc(Nc3ccc4c(c3)OCCO4)n1)OCCO2 [Compound R926516, N2,N4,N6-Tris(3,4-ethylenedioxyphenyl)-2,4,6-pyrimidinetriamine]	> 10	1	–	–	–
O=[N+]([O-])c1cnc(Nc2ccc3c(c2)OCCO3)nc1Nc1ccc2c(c1)OCCO2 [Compound R940095, N2,N4-Bis-(3,4-ethylenedioxyphenyl)-5-nitro-2,4-pyrimidinediamine]	> 10	> 10	–	–	–
OCc1cccc(Nc2nc(Nc3ccc4c(c3)OCCO4)ncc2F)c1 [Compound R925758, N2-(3,4-Ethylenedioxyphenyl)-5-fluoro-N4-[3-(hydroxymethyl)phenyl]-2,4-pyrimidinediamine]	> 10	1.18	–	–	–
CC(C)Oc1ccc(Nc2nc(Nc3ccc(OCC(O)CO)cc3)ncc2F)cc1 (centres unmarked) [Compound R935175, N2-[4-(2,3-Dihydroxypropoxy)phenyl]-5-fluoro-N4-(4-isopropoxyphenyl)-2,4-pyrimidinediamine]	> 10	0.885	–	–	–
Oc1cccc(Nc2nc(Nc3ccc(-n4cnc(Cl)c4Cl)cc3)ncc2F)c1 [Compound R926777, N2-[4-(4,5-Dichloro-1H-imidazol-1-yl)phenyl]-5-fluoro-N4-(3-hydroxyphenyl)-2,4-pyrimidinediamine]	> 10	0.378	–	–	–
Oc1cccc(Nc2ncc(C(F)(F)F)c(Nc3cccc(O)c3)n2)c1 [Compound R925863, N2,N4-Bis(3-hydroxyphenyl)-5-trifluoromethyl-2,4-pyrimidinediamine]	> 10	0.274	–	–	–
CC(=O)Nc1cccc(Nc2ncc(F)c(Nc3cccc(NC(C)=O)c3)n2)c1 [Compound R926682, N2,N4-Bis(3-acetamidophenyl)-5-fluoro-2,4-pyrimidinediamine]	> 10	8.41	–	–	–
CN1C=COc2cc(Nc3ncc(F)c(Nc4cccc(O)c4)n3)ccc21 [Compound R908704, 5-Fluoro-N4-(3-hydroxyphenyl)-N2-(N-methyl-1,4-benzoxazin-7-yl)-2,4-pyrimidinediamine]	> 10	0.511	–	–	–
c1ccc(-c2cnc(Nc3ccc4c(c3)OCCO4)nc2Nc2ccc3c(c2)OCCO3)cc1 [Compound R925784, N2,N4-Bis(3,4-ethylenedioxyphenyl)-5-phenyl-2,4-pyrimidinediamine]	> 10	3.2	–	–	–
Oc1cccc(Nc2cc(Cl)nc(Nc3cccc(O)c3)n2)c1 [Compound R926408, N2,N4-Bis(3-hydroxyphenyl)-6-chloro-2,4-pyrimidinediamine]	> 10	9.6	–	–	–
COC(=O)C1Cc2cc(Nc3ncc(F)c(Nc4ccc(OC(F)(F)F)c(Cl)c4)n3)ccc2O1 (centres unmarked) [Compound R926953, N4-(3-Chloro-4-trifluoromethoxyphenyl)-5-fluoro-N2-[2,3-dihydro-2-(methoxycarbonyl)benzofuran-5-yl]-2,4-pyrimidinediamine]	> 10	0.049	–	–	–
CC(C)c1ccc(O)cc1Nc1ncc(F)c(Nc2cc(O)ccc2C(C)C)n1 [Compound R935077, N2,N4-Bis(5-hydroxy-2-isopropylphenyl)-5-fluoro-2,4-pyrimidinediamine]	> 10	> 10	–	–	–
COC(=O)c1cc2cc(Nc3ncc(F)c(Nc4ccc5[nH]c(C(=O)OC)cc5c4)n3)ccc2[nH]1 [Compound R926593]	–	–	8.3	0.68	0.495
COC(=O)c1cc2cc(Nc3ncc(F)c(Nc4ccc5oc(C(=O)OC)cc5c4)n3)ccc2o1 [Compound R926604, N2,N4-Bis(2-methoxycarbonylbenzofuran-5-yl)-5-fluoro-2,4-pyrimidinediamine]	> 10	2.85	–	–	–
COC(=O)Cn1ncc2cc(Nc3ncc(F)c(Nc4ccc5c(c4)OCCO5)n3)ccc21 [Compound R935223, N4-(3,4-Ethylenedioxyphenyl)-5-fluoro-N2-[1-(methoxycarbonyl)methyl-indazoline-5-yl]-2,4-pyrimidinediamine]	–	–	> 10	0.469	–
CC(C)Oc1ccc(Nc2ncc(F)c(Nc3cccc(N)c3)n2)cc1 [Compound R950165, N4-(3-Aminophenyl)-5-fluoro-N2-(4-isopropoxyphenyl)-2,4-pyrimidinediamine]	> 10	1.29	–	–	–
